Data taken from ChEMBL document CHEMBL1201862, “PubChem BioAssay data set” (2004).
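A five-concentration, 48-hour dose response in 96-well plates underlies each endpoint, interpolated linearly between surrounding concentrations. Here, GI50 denotes the concentration required for 50% inhibition of growth.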 Active and inactive are the calls of the source. Rule as the data show it: active = GI50 up to about 1.1 µM and inactive = higher.

Experiments:
Assay in all cases: NCI-60 cell line screen, 48 h
[1] = system: SK-MEL-5
[2] = system: RPMI-8226
[3] = system: NCI-H226
[4] = system: Hs-578T
[5] = system: PC-3
[6] = system: SK-OV-3
[7] = system: SW-620
[8] = system: UACC-257
[9] = system: SN12C
[10] = system: TK-10
[11] = system: BT-549
[12] = system: UO-31
[13] = system: A549
[14] = system: IGROV-1
[15] = system: OVCAR-3
[16] = system: HCC 2998
[17] = system: EKVX
[18] = system: CCRF-CEM
[19] = system: HT-29
[20] = system: MOLT-4

Row | SMILES | GI50 [1] | GI50 [2] | GI50 [3] | GI50 [4] | GI50 [5] | GI50 [6] | GI50 [7] | GI50 [8] | GI50 [9] | GI50 [10] | GI50 [11] | GI50 [12] | GI50 [13] | GI50 [14] | GI50 [15] | GI50 [16] | GI50 [17] | GI50 [18] | GI50 [19] | GI50 [20]
1 | CC[N+]1(C)CCC(O)(c2ccc(OC)cc2)C(C(=O)c2ccc(OC)cc2)C1 (centres undefined) | 15.4 µM (inactive) | 1.91 µM (inactive) | 18.7 µM (inactive) | 0.0368 µM (active) | 17.7 µM (inactive) | 18 µM (inactive) | 2.08 µM (inactive) | 17.5 µM (inactive) | 18.2 µM (inactive) | 4.51 µM (inactive) | 16 µM (inactive) | 18.7 µM (inactive) | 19.9 µM (inactive) | 20.5 µM (inactive) | 12.4 µM (inactive) | 19.6 µM (inactive) | 19.8 µM (inactive) | 2.02 µM (inactive) | 7.03 µM (inactive) | 2.23 µM (inactive)
2 | O=c1oc2ccccc2cc1-c1ccc([N+](=O)[O-])cc1 | 53 µM (inactive) | > 100 µM (inactive) | > 100 µM (inactive) | 99.5 µM (inactive) | > 100 µM (inactive) | 65.3 µM (inactive) | 25.8 µM (inactive) | > 100 µM (inactive) | > 100 µM (inactive) | > 100 µM (inactive) | 16.5 µM (inactive) | > 100 µM (inactive) | 85.9 µM (inactive) | > 100 µM (inactive) | > 100 µM (inactive) | > 100 µM (inactive) | > 100 µM (inactive) | > 100 µM (inactive) | > 100 µM (inactive) | > 100 µM (inactive)
3 | N#CC1(C#N)NC(c2ccccc2)C(C#N)(C#N)NC1c1ccccc1 (centres undefined) | > 100 µM (inactive) | > 100 µM (inactive) | > 100 µM (inactive) | > 100 µM (inactive) | > 100 µM (inactive) | > 100 µM (inactive) | > 100 µM (inactive) | > 100 µM (inactive) | > 100 µM (inactive) | > 100 µM (inactive) | > 100 µM (inactive) | > 100 µM (inactive) | > 100 µM (inactive) | > 100 µM (inactive) | > 100 µM (inactive) | > 100 µM (inactive) | > 100 µM (inactive) | > 100 µM (inactive) | > 100 µM (inactive) | > 100 µM (inactive)
4 | CCOc1ccc2nc(NC(=O)C(=O)C(C(=O)c3ccccc3-c3ccccc3)C3OC(=O)c4ccccc43)sc2c1 (centres undefined) | 16.2 µM (inactive) | 12.2 µM (inactive) | 5.31 µM (inactive) | 34.8 µM (inactive) | 18.2 µM (inactive) | 25.9 µM (inactive) | 26.6 µM (inactive) | 22.4 µM (inactive) | 11.7 µM (inactive) | 16.5 µM (inactive) | 16.7 µM (inactive) | 22.4 µM (inactive) | 26.4 µM (inactive) | 26.7 µM (inactive) | 18.7 µM (inactive) | 18.5 µM (inactive) | 19.8 µM (inactive) | 21.1 µM (inactive) | 19.4 µM (inactive) | 13.2 µM (inactive)
5 | O=C(c1cccs1)N1CCN(C(=O)c2cccs2)C1=S | 4.59 µM (inactive) | 1.63 µM (inactive) | 15.8 µM (inactive) | 10.7 µM (inactive) | 4.5 µM (inactive) | 15.6 µM (inactive) | 5.01 µM (inactive) | 6.19 µM (inactive) | 2.95 µM (inactive) | 5.4 µM (inactive) | 5.4 µM (inactive) | 2.33 µM (inactive) | 3.96 µM (inactive) | 6.7 µM (inactive) | 2.94 µM (inactive) | 7.96 µM (inactive) | 13.9 µM (inactive) | 2.69 µM (inactive) | 6.71 µM (inactive) | 3.24 µM (inactive)
6 | NC(Cc1ncccn1)C(=O)O (centres undefined) | > 100 µM (inactive) | > 100 µM (inactive) | > 100 µM (inactive) | > 100 µM (inactive) | > 100 µM (inactive) | > 100 µM (inactive) | > 100 µM (inactive) | > 100 µM (inactive) | > 100 µM (inactive) | > 100 µM (inactive) | > 100 µM (inactive) | > 100 µM (inactive) | > 100 µM (inactive) | > 100 µM (inactive) | > 100 µM (inactive) | > 100 µM (inactive) | > 100 µM (inactive) | > 100 µM (inactive) | > 100 µM (inactive) | > 100 µM (inactive)
7 | CO/N=C\c1cc(O)c(O)c(/C=N/OC)c1 | 55.7 µM (inactive) | 12.5 µM (inactive) | 30.3 µM (inactive) | 12.6 µM (inactive) | 33.7 µM (inactive) | 29.1 µM (inactive) | 36.6 µM (inactive) | > 100 µM (inactive) | 12.8 µM (inactive) | 86.7 µM (inactive) | > 100 µM (inactive) | 11.3 µM (inactive) | 26 µM (inactive) | 27.4 µM (inactive) | 4.82 µM (inactive) | 32.8 µM (inactive) | 47.4 µM (inactive) | 16 µM (inactive) | 40.5 µM (inactive) | 8.17 µM (inactive)
8 | Cc1cc(C)c(S(=O)(=O)N(CCCN)OCCCN)c(C)c1 | > 100 µM (inactive) | > 100 µM (inactive) | > 100 µM (inactive) | > 100 µM (inactive) | > 100 µM (inactive) | > 100 µM (inactive) | > 100 µM (inactive) | > 100 µM (inactive) | > 100 µM (inactive) | > 100 µM (inactive) | > 100 µM (inactive) | > 100 µM (inactive) | > 100 µM (inactive) | > 100 µM (inactive) | 56 µM (inactive) | > 100 µM (inactive) | > 100 µM (inactive) | > 100 µM (inactive) | > 100 µM (inactive) | > 100 µM (inactive)
9 | CCC(=O)NCCc1c2c3c(ccnc3c3ncsc13)-c1ccccc1N2 [KUANONIAMINE C] | 2.72 µM (inactive) | 0.401 µM (active) | 0.91 µM (active) | 0.368 µM (active) | 1.41 µM (inactive) | 12.2 µM (inactive) | 1.18 µM (inactive) | 6 µM (inactive) | 0.724 µM (active) | 6.32 µM (inactive) | 2.69 µM (inactive) | 0.53 µM (active) | 0.771 µM (active) | 2.81 µM (inactive) | 10.5 µM (inactive) | 0.692 µM (active) | 5.22 µM (inactive) | 2.86 µM (inactive) | 0.541 µM (active) | 1.4 µM (inactive)
10 | CC(=O)c1c(SCCN2CCCCCC2)n(-c2ccccc2)c(=S)n(-c2ccccc2)c1=O | 9.68 µM (inactive) | 0.384 µM (active) | 29 µM (inactive) | 17.7 µM (inactive) | 5.26 µM (inactive) | 48.3 µM (inactive) | 2.04 µM (inactive) | 4.07 µM (inactive) | 5.92 µM (inactive) | 2.07 µM (inactive) | 16.6 µM (inactive) | – | 6.82 µM (inactive) | 8.3 µM (inactive) | 3.13 µM (inactive) | 4.3 µM (inactive) | 19.2 µM (inactive) | 0.0462 µM (active) | 7.4 µM (inactive) | 2.16 µM (inactive)
11 | COc1ccc(/C(C)=N/NC(=S)N(C)C)c(O)c1 | 12.1 µM (inactive) | 7.74 µM (inactive) | 4.09 µM (inactive) | 53.1 µM (inactive) | 6.4 µM (inactive) | 3.84 µM (inactive) | 5.28 µM (inactive) | 20.9 µM (inactive) | 11.7 µM (inactive) | – | 18.9 µM (inactive) | 5.65 µM (inactive) | 4.52 µM (inactive) | 4.31 µM (inactive) | 4.85 µM (inactive) | 24.6 µM (inactive) | 5.41 µM (inactive) | 4.49 µM (inactive) | 3.8 µM (inactive) | 4.57 µM (inactive)
12 | O=C(O)C(F)(F)C(F)(F)C(F)(F)C(F)(F)C(=O)O | > 100 µM (inactive) | > 100 µM (inactive) | > 100 µM (inactive) | > 100 µM (inactive) | > 100 µM (inactive) | > 100 µM (inactive) | > 100 µM (inactive) | > 100 µM (inactive) | > 100 µM (inactive) | > 100 µM (inactive) | > 100 µM (inactive) | > 100 µM (inactive) | > 100 µM (inactive) | > 100 µM (inactive) | > 100 µM (inactive) | > 100 µM (inactive) | > 100 µM (inactive) | > 100 µM (inactive) | > 100 µM (inactive) | –
13 | CC(=O)c1ccccc1NS(=O)(=O)c1ccc2nc(C)n(NS(=O)(=O)c3ccccc3C(C)=O)c(=O)c2c1 | > 100 µM (inactive) | > 100 µM (inactive) | > 100 µM (inactive) | > 100 µM (inactive) | > 100 µM (inactive) | > 100 µM (inactive) | > 100 µM (inactive) | > 100 µM (inactive) | > 100 µM (inactive) | > 100 µM (inactive) | > 100 µM (inactive) | 37.3 µM (inactive) | – | > 100 µM (inactive) | > 100 µM (inactive) | > 100 µM (inactive) | > 100 µM (inactive) | > 100 µM (inactive) | > 100 µM (inactive) | > 100 µM (inactive)
14 | N#CC(/N=N/c1ccc(Cl)cc1)c1nc2ccccc2o1 (centres undefined) | > 100 µM (inactive) | 15.7 µM (inactive) | > 100 µM (inactive) | 42.7 µM (inactive) | 77.6 µM (inactive) | 32.7 µM (inactive) | – | > 100 µM (inactive) | > 100 µM (inactive) | 56.6 µM (inactive) | 32.6 µM (inactive) | > 100 µM (inactive) | > 100 µM (inactive) | – | 37.9 µM (inactive) | 33 µM (inactive) | 34.5 µM (inactive) | 21.1 µM (inactive) | > 100 µM (inactive) | 20.5 µM (inactive)
